The source of these data is US20070021495A1, “SULFONAMIDES AS SELECTIVE ESTROGEN RECEPTOR” (priority 2005, published 2007).

Entries after “also recorded” stand apart in the source; their conditions may differ.

Experiment [1] has as its target T1, purified full-length human ERalpha (Homo sapiens, UniProt P03372).
T1 construct: purified full-length human ERalpha and ERbeta receptors purchased from Pan Vera (Madison, Wis.); purchased Pan Vera (Madison, Wis.)
T1 sequence (P03372 1-595): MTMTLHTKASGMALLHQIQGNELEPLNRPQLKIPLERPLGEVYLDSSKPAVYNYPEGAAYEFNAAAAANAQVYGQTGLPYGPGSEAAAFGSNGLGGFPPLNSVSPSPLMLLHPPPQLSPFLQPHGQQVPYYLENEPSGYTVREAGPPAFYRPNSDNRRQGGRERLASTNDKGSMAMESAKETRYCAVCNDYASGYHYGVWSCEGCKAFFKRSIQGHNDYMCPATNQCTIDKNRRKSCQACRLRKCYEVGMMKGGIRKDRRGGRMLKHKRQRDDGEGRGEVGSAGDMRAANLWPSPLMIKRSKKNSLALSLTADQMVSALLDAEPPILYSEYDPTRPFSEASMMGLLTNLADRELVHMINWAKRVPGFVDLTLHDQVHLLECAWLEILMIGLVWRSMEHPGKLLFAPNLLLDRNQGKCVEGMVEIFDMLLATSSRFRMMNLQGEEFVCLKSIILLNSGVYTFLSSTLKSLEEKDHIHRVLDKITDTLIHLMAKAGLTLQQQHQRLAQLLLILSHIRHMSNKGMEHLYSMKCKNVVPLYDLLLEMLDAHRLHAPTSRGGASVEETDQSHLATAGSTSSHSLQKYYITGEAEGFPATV
Put plainly: Competitive radiometric binding assay, relative binding affinity (RBA), ERalpha. Conditions: normalized to estradiol set at 100%; [3H]estradiol 10 nM tracer, 18-24 h at 0° C. The protocol: Incubations were for 18-24 h at 0° C. Hydroxyapatite (BioRad, Hercules, Calif.) was used to absorb the receptor-ligand complexes and free ligand was washed away. […] The values given are the average±range or SD of two to three independent determinations.

In experiment [2] the target is T2, purified full-length human ERbeta (Homo sapiens, UniProt Q92731).
T2 construct: purified full-length human ERalpha and ERbeta receptors purchased from Pan Vera (Madison, Wis.); purchased Pan Vera (Madison, Wis.)
T2 sequence (Q92731 whole entry): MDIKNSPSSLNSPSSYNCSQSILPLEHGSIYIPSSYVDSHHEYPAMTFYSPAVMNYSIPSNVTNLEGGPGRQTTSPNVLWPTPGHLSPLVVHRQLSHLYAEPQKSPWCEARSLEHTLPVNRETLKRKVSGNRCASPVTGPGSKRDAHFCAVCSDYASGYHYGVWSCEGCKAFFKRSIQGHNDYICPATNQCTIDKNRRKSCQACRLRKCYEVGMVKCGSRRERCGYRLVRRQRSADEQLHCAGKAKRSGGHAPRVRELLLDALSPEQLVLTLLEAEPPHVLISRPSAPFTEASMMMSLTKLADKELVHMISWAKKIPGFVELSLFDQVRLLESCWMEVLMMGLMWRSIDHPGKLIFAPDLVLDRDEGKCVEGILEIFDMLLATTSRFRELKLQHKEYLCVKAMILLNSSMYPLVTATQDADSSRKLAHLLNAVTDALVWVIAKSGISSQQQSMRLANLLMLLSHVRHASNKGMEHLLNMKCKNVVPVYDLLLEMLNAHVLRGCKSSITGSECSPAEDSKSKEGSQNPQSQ
Put plainly: Competitive radiometric binding assay, relative binding affinity (RBA), ERbeta. Particulars: for ER beta selectivity: binding selectivity ER beta over ER alpha; for Relative binding affinity (RBA) ERβ: normalized to estradiol set at 100%, [3H]estradiol 10 nM tracer, 18-24 h at 0° C; for ERβ/ERα (ratio of RBAs): ratio of RBA ERβ to RBA ERα. From the text:
The relative binding affinities (RBAs) of potential ER ligands can be measured using purified full length human ERalpha and ERbeta receptors in a competitive radiometric binding assay, according to published procedures (Carlson, K. E.; Choi, I.; Gee, A,; Katzenellenbogen, B. S.; Katzenellenbogen, J. A. Altered ligand binding properties and enhanced stability of a constitutively active estrogen receptor: evidence that an open pocket conformation is required for ligand interaction. Biochemistry 1997, 36, 14897-14905; Katzenellenbogen, J. A.; Johnson, H. J., Jr.; Myers, H. N. Photoaffinity labels for estrogen binding proteins of rat uterus. Biochemistry 1973, 12, 4085-4092) as described in the Examples.
Relative binding affinities reported herein were determined by a competitive radiometric binding assay as previously described (Carlson, K. E.; Choi, I.; Gee, A.; Katzenellenbogen, B. S.; Katzenellenbogen, J. A. Altered ligand binding properties and enhanced stability of a constitutively active estrogen receptor: evidence that an open pocket conformation is required for ligand interaction. Biochemistry 1997, 36, 14897-14905; Katzenellenbogen, J. A.; Johnson, H. J., Jr.; Myers, H. N. Photoaffinity labels for estrogen binding proteins of rat uterus. Biochemistry 1973, 12, 4085-4092.) [3H]estradiol (10 nM) was used as tracer ([6,7-3H]estra-1,3,5,(10)triene-3,17-β-diol, 51-53 Ci/mmol, Amersham Biosciences, Piscataway, N.J.), and purified full-length human ERalpha and ERbeta receptors purchased from Pan Vera (Madison, Wis.). Incubations were for 18-24 h at 0° C. Hydroxyapatite (BioRad, Hercules, Calif.) was used to absorb the receptor-ligand complexes and free ligand was washed away. The binding affinities are expressed as relative binding affinity (RBA) values with the RBA of estradiol set to 100%. The values given are the average±range or SD of two to three independent determinations. […]

Another experiment deals with ERβ (Homo sapiens, UniProt Q92731). Put plainly: Antagonism of estrogen-induced 2x-pS2-ERE-Luc reporter expression in HEC-1 cells transfected with ERβ. Particulars: ligand + E2 at 1 nM, 24 hours, luciferase, pS2 promoter.
Sequence of ERβ (Q92731 whole entry, species assumed): as the sequence (Q92731 whole entry) above
The next experiment addresses T3, ERα (Homo sapiens, UniProt P03372).
T3 sequence (P03372 1-595): T1 sequence (P03372 1-595)
Put plainly: Antagonism of estrogen-induced 2x-pS2-ERE-Luc reporter expression in HEC-1 cells transfected with ERα. Conditions: ligand + E2 at 1 nM, 24 hours, luciferase, pS2 promoter.

Experiment [3] relates to U2-OS cells stably expressing either ERα or ERβ. Briefly: Endogenous gene expression (cystatin D, GREB1 mRNA, quantitative PCR) in U2-OS cells stably expressing ERα or ERβ. Conditions: 24 hours, mRNA by quantitative PCR.
Description: Expression levels of cystatin D (A and B) or of GREB1 (C and D) mRNA were determined by quantitative PCR methods.
More specifically real-time PCR was carried out on the indicated genes to evaluate mRNA levels of ER alpha or ER beta in U2-OS stably transfected cells. […] One microgram of total RNA from each sample was reverse transcribed in a total volume of 20 μl using 200 U reverse transcriptase, 50 pmol random hexamers, and 1 mM deoxynucleotide triphosphates (New England Biolabs, Beverly, Mass.). The resulting cDNA was then diluted to a total volume of 100 μl. Each real-time PCR consisted of 5 μl of diluted reverse transcription product, 1× SYBR Green PCR Master Mix (Applied Biosystems, Foster City, Calif.), and 50 nM of forward and reverse primers. Reactions were carried out in an ABI Prism 7700 Sequence Detection System (Applied Biosystems) for 40 cycles (95 C for 15 sec, 60 C for 1 min) after an initial 10-min incubation at 95 C. The FC in expression was calculated using the DDCt comparative threshold cycle method with the ribosomal protein 36B4 mRNA as an internal control. Gene expression is normalized to an endogenous reference gene (36B4) and the FC in gene expression is then determined relative to the vehicle-treated control.
For another experiment, the system named is ovariectomized mice. Particulars: dose 250 micrograms; cited from earlier work.

With `CCC(C)N(c1ccc(O)cc1)S(=O)(=O)c1ccc(O)cc1` (racemic) [Compound 20h (Racemic), N-sec-Butyl-4-hydroxy-N-(4-hydroxy-phenyl)-benzenesulfonamide], in experiment [1], the “Relative binding affinity (RBA) ERα” value was 0.006%. In addition, in experiment [2], the ER beta selectivity is 162 fold, the “Relative binding affinity (RBA) ERβ” value is 0.97% and the “ERβ/ERα (ratio of RBAs)” value is reported as 162.
For `CN(c1ccc(O)cc1)S(=O)(=O)c1ccc(O)cc1` [Compound 20a, 4-Hydroxy-N-(4-hydroxy-phenyl)-N-methyl-benzenesulfonamide], the “Relative binding affinity (RBA) ERα” value in experiment [1] amounted to 0.009%. Besides, in experiment [2], the “Relative binding affinity (RBA) ERβ” value is on record as 0.058% and the “ERβ/ERα (ratio of RBAs)” value is listed as 6.4.
For the compound `CCN(c1ccc(O)cc1)S(=O)(=O)c1ccc(O)cc1` [Compound 20b, N-Ethyl-4-hydroxy-N-(4-hydroxy-phenyl)-benzenesulfonamide], the “Relative binding affinity (RBA) ERα” value in experiment [1] was found to be 0.007%. Besides, in experiment [2], the “Relative binding affinity (RBA) ERβ” value amounted to 0.28% and the “ERβ/ERα (ratio of RBAs)” value is recorded as 40.
In the case of `CCCN(c1ccc(O)cc1)S(=O)(=O)c1ccc(O)cc1` [Compound 20c, 4-Hydroxy-N-(4-hydroxy-phenyl)-N-propyl-benzenesulfonamide], the “Relative binding affinity (RBA) ERα” value in experiment [1] was determined as 0.026%. The “Antagonism on estrogen-induced gene expression through ERβ” value on ERβ (listed as FS-2) is on record as “do not act as antagonists; also recorded: lack of antagonism”. Moreover, the “Antagonism on estrogen-induced gene expression through ERα” value at ERα (listed as FS-2) was “do not act as antagonists; also recorded: lack of antagonism”. Besides, in experiment [2], the ER beta selectivity was determined as 98 fold, the “Relative binding affinity (RBA) ERβ” value came out at 2.56% and the “ERβ/ERα (ratio of RBAs)” value stood at 98. In experiment [3], the “Potency in endogenous gene regulation compared to the dose response of estradiol” value is on record as “preferential potency through ERbeta”; the “Regulation of endogenous genes (cystatin D and GREB1)” value is “preferential regulation through ERbeta”.
As for `CCCCN(c1ccc(O)cc1)S(=O)(=O)c1ccc(O)cc1` [Compound 20d, N-Butyl-4-hydroxy-N-(4-hydroxy-phenyl)-benzenesulfonamide], in experiment [1], the “Relative binding affinity (RBA) ERα” value amounted to 0.023%. In addition, in experiment [2], the “Relative binding affinity (RBA) ERβ” value turned out to be 1.15% and the “ERβ/ERα (ratio of RBAs)” value came out at 50.
For `CC(C)CN(c1ccc(O)cc1)S(=O)(=O)c1ccc(O)cc1` [Compound 20e, N-Isobutyl-4-hydroxy-N-(4-hydroxy-phenyl)-benzenesulfonamide] the same measures were 0.013%, 0.14% and 11.
The corresponding values for `CCCCCN(c1ccc(O)cc1)S(=O)(=O)c1ccc(O)cc1` [Compound 20f, 4-Hydroxy-N-(4-hydroxy-phenyl)-N-pentyl-benzenesulfonamide] are 0.047%, 0.60% and 13.
The corresponding values for `CC(C)N(c1ccc(O)cc1)S(=O)(=O)c1ccc(O)cc1` [Compound 20g, N-Isopropyl-4-hydroxy-N-(4-hydroxy-phenyl)-benzenesulfonamide] are 0.012%, 0.22% and 18.
In the case of `CCCC(C)N(c1ccc(O)cc1)S(=O)(=O)c1ccc(O)cc1` (stereo not drawn) [Compound 20i, 4-Hydroxy-N-(4-hydroxy-phenyl)-N-(1-methyl-butyl)-benzenesulfonamide], the “Relative binding affinity (RBA) ERα” value in experiment [1] is given as 0.013%. In experiment [2], the “Relative binding affinity (RBA) ERβ” value worked out at 1.3% and the “ERβ/ERα (ratio of RBAs)” value was determined as 100.
For `CCC(CC)N(c1ccc(O)cc1)S(=O)(=O)c1ccc(O)cc1` [Compound 20j, N-(1-Ethyl-propyl)-4-hydroxy-N-(4-hydroxy-phenyl)-benzenesulfonamide] the same measures were 0.018%, 0.11% and 6.1.
For `O=S(=O)(c1ccc(O)cc1)N(CC(F)(F)F)c1ccc(O)cc1` [Compound 20k, 4-Hydroxy-N-(4-hydroxy-phenyl)-N-(2,2,2-trifluoro-ethyl)-benzenesulfonamide] the same measures were 0.020%, 0.17% and 8.5.
Turning to `O=S(=O)(c1ccc(O)cc1)N(CCC(F)(F)F)c1ccc(O)cc1` [Compound 20l, 4-Hydroxy-N-(4-hydroxy-phenyl)-N-(3,3,3-trifluoro-propyl)benzenesulfonamide], the “Relative binding affinity (RBA) ERα” value in experiment [1] is given as 0.006%. In addition, the “Antagonism on estrogen-induced gene expression through ERβ” value on ERβ (listed as FS-5) was “do not act as antagonists; also recorded: lack of antagonism”. Moreover, at ERα (listed as FS-5), the “Antagonism on estrogen-induced gene expression through ERα” value is on record as “do not act as antagonists; also recorded: lack of antagonism”. For the same compound, in experiment [2], the ER beta selectivity is recorded as 212 fold, the “Relative binding affinity (RBA) ERβ” value stood at 1.27% and the “ERβ/ERα (ratio of RBAs)” value is 212. In experiment [3], the “Potency in endogenous gene regulation compared to the dose response of estradiol” value was “preferential potency through ERbeta”; the “Regulation of endogenous genes (cystatin D and GREB1)” value was “preferential regulation through ERbeta”.
Regarding `CCCN(c1ccc(O)c(F)c1)S(=O)(=O)c1ccc(O)cc1` [Compound 24a, N-(3-Fluoro-4-hydroxy-phenyl)-4-hydroxy-N-propyl-benzenesulfonamide], in experiment [1], the “Relative binding affinity (RBA) ERα” value is 0.011%. In addition, in experiment [2], the “Relative binding affinity (RBA) ERβ” value amounted to 0.254% and the “ERβ/ERα (ratio of RBAs)” value was determined as 23.
For `CCCN(c1ccc(O)c(Cl)c1)S(=O)(=O)c1ccc(O)cc1` [Compound 24b, N-(3-Chloro-4-hydroxy-phenyl)-4-hydroxy-N-propyl-benzenesulfonamide] the same measures were 0.005%, 0.038% and 7.6.
The corresponding values for `O=S(=O)(c1ccc(O)cc1)N(CCC(F)(F)F)c1ccc(O)c(F)c1` [Compound 28a, N-(3-Fluoro-4-hydroxy-phenyl)-4-hydroxy-N-(3,3,3-trifluoro-propyl)-benzenesulfonamide] are 0.009%, 0.178% and 20.
Regarding `O=S(=O)(c1ccc(O)cc1)N(CCC(F)(F)F)c1ccc(O)c(Cl)c1` [Compound 28b, N-(3-Chloro-4-hydroxy-phenyl)-4-hydroxy-N-(3,3,3-trifluoro-propyl)-benzenesulfonamide], the “Relative binding affinity (RBA) ERα” value in experiment [1] amounted to 0.003%. In experiment [2], the “Relative binding affinity (RBA) ERβ” value is 0.023% and the “ERβ/ERα (ratio of RBAs)” value was 7.7.
Regarding `COc1ccc(S(=O)(=O)N(c2ccccc2)c2ccccc2)cc1` [compound VIII], the “percentage of animals which responded” value with ovariectomized mice is on record as 60%.
